Reference: patent publication US8906944B2, “Compounds as tyrosine kinase modulators” (Allergan, Inc., priority 2009, dated 2014)

Tests used:
Format in all cases: biochemical
[1] = target: PDGFβ (Homo sapiens, UniProt P09619); test: PDGFβ enzyme assay; details: Table IV, amide or urea linker
[2] = target: VEGFR1 (Homo sapiens, UniProt P17948); test: VEGFR1 enzyme assay; details: Table IV, amide or urea linker
[3] = target: T1, human VEGF receptor (VEGFR-2) (Homo sapiens, UniProt P35968); test: VEGFR2 kinase assay; details: His-VEGFR-2 cytoplasmic domain, 3.6 μM ATP; Table IV, amide or urea linker; read-out: VEGFR2 Enzyme IC50
T1 construct: The cytoplasmic domain of the human VEGF receptor (VEGFR-2) was expressed; His; made in house; host or cells: insect cells (baculovirus)
T1 sequence (P35968 786-1356 limits assumed): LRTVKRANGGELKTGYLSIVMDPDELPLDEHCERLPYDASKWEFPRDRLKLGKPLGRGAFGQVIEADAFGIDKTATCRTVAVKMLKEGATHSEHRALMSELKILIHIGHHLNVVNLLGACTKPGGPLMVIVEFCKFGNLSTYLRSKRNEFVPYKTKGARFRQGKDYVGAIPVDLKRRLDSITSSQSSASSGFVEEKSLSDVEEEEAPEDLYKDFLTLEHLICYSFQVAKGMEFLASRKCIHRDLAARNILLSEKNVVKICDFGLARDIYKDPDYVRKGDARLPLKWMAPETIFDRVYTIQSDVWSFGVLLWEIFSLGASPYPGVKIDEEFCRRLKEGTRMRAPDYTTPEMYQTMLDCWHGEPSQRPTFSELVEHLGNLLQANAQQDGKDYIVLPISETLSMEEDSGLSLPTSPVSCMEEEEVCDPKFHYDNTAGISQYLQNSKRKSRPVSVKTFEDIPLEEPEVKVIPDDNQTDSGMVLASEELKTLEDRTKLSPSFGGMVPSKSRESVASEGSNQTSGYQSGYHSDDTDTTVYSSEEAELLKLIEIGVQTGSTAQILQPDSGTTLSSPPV
Experimental: The cytoplasmic domain of the human VEGF receptor (VEGFR-2) was expressed as a Histidine-tagged fusion protein following infection of insect cells using an H is engineered baculovirus. […] Kinase assays were performed in 96 well microtiter plates that were coated overnight with 30 µg of poly-Glu-Tyr (4:1) in 10 mM Phosphate Buffered Saline (PBS), pH 7.2-7.4. The plates were incubated with 1% BSA and then washed four times with PBS prior to starting the reaction. Reactions were carried out in 120 µL reaction volumes containing 3.6 µM ATP in kinase buffer (50 mM Hepes buffer pH 7.4, 20 mM MgCl2, 0.1 mM MnCl2 and 0.2 mM Na3 VO4). […] Reactions were initiated by the addition 0.5 ng of purified protein. Following a ten minute incubation at 25 degree. […] IC50 values for compound inhibition were calculated directly from graphs of optical density (arbitrary units) versus compound concentration following subtraction of blank values.

Chain of VEGFR1 (P17948 27-1338, species assumed): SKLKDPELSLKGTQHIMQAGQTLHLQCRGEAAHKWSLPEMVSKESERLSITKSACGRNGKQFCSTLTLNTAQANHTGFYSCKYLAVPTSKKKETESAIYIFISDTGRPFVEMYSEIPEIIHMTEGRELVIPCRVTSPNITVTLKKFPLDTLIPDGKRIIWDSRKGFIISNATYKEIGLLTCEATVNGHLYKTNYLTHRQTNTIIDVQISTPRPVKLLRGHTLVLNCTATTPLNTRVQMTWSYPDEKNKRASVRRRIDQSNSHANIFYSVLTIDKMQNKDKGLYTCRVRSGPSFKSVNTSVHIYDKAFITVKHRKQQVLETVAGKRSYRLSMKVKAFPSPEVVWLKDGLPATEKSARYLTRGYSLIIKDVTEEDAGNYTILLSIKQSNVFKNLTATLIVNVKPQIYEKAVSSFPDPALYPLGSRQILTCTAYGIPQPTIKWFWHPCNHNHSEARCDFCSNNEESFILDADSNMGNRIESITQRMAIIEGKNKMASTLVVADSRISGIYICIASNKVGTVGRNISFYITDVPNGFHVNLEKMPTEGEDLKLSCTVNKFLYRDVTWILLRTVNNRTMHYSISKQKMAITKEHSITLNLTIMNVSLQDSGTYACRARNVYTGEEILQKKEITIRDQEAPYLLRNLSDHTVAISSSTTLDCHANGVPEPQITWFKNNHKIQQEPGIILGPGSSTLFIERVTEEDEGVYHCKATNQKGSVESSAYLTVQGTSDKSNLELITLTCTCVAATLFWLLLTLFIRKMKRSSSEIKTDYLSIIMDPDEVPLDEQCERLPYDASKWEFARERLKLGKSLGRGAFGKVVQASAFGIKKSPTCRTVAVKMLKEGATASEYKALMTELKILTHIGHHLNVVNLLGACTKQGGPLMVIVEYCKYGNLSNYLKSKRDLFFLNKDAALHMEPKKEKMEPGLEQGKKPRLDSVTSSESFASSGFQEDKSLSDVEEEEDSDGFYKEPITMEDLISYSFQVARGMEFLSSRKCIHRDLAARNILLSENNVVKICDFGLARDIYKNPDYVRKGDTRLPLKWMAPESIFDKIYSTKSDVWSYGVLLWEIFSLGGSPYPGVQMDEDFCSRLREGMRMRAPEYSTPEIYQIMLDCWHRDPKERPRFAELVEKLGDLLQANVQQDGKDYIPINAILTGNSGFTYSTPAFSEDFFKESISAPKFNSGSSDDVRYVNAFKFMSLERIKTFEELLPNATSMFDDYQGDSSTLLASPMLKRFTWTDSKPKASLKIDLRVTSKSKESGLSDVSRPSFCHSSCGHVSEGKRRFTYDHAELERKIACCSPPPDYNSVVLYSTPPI
Chain of PDGFβ (P09619 33-1106): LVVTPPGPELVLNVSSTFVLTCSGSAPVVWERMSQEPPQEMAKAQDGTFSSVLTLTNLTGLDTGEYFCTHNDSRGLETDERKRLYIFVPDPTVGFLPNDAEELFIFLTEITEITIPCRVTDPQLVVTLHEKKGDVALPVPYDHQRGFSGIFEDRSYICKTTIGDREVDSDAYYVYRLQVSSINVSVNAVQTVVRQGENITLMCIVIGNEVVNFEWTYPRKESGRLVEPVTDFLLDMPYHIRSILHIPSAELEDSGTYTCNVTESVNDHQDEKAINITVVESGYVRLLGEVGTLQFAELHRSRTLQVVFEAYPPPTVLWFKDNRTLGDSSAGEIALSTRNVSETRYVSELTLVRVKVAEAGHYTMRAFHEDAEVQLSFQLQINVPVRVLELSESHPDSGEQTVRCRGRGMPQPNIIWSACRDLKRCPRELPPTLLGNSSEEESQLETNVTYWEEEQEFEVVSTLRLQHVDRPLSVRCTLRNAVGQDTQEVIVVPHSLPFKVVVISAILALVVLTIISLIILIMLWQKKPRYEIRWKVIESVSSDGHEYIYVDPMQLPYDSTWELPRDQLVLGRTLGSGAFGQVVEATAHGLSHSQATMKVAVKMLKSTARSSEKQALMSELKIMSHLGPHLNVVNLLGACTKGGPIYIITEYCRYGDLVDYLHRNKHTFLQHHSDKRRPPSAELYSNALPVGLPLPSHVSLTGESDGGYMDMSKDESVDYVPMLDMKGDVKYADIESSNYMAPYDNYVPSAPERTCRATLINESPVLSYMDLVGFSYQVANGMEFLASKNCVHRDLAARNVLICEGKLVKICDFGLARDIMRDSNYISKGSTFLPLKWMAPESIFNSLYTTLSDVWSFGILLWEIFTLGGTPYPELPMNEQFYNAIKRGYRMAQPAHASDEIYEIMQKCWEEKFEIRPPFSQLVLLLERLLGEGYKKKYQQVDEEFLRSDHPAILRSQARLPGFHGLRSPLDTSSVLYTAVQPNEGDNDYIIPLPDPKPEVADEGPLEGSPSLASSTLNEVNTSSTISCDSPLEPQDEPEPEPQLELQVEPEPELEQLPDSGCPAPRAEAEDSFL

Compound | IC50 [1] | IC50 [2] | IC50 [3]
CCNC(=O)CC[C@H](NC(=O)c1c[nH]c(-c2cc(Oc3cc(C(=O)Nc4cc(C)ccc4F)ccc3F)ccn2)c1)C(=O)NCC (stereo in doubt) [Example 246, N,N′-diethyl-2-[({5-[4-(2-fluoro-5-{[(2-fluoro-5-methylphenyl)amino]carbonyl}phenoxy)pyridin-2-yl]-1H-pyrrol-3-yl}carbonyl)amino]pentanediamide] | 54 nM | 62 nM | 42 nM
COC(=O)CCNC(=O)c1c[nH]c(-c2cc(Oc3ccc(NC(=O)Nc4cccc(C)c4)c(F)c3)ccn2)c1 [Example 174, methyl 3-{[(5-{4-[3-fluoro-4-({[(3-methylphenyl)amino]carbonyl}amino)phenoxy]pyridin-2-yl}-1H-pyrrol-3-yl)carbonyl]amino}propanoate] | 42 nM |  | 8 nM
Cc1ccc(F)c(NC(=O)Nc2ccc(Oc3ccnc(-c4cc(C(=O)NCCCC(=O)NN)c[nH]4)c3)cc2)c1 [Example 177, 5-{4-[4-({[(2-fluoro-5-methylphenyl)amino]carbonyl}amino)phenoxy]pyridin-2-yl}-N-(4-hydrazino-4-oxobutyl)-1H-pyrrole-3-carboxamide] |  |  | 15 nM
COC(=O)CN(CCCNC(=O)c1c[nH]c(-c2cc(Oc3cc(C(=O)Nc4cc(C)ccc4F)ccc3F)ccn2)c1)CC(=O)OC [Example 178, dimethyl 2,2′-({3-[({5-[4-(2-fluoro-5-{[(2-fluoro-5-methylphenyl)amino]carbonyl}phenoxy)pyridin-2-yl]-1H-pyrrol-3-yl}carbonyl)amino]propyl}imino)diacetate] |  | 60 nM | 24 nM
COC(=O)CN(CCNC(=O)c1c[nH]c(-c2cc(Oc3cc(C(=O)Nc4cc(C)ccc4F)ccc3F)ccn2)c1)CC(=O)OC [Example 179, dimethyl 2,2′-({2-[({5-[4-(2-fluoro-5-{[(2-fluoro-5-methylphenyl)amino]carbonyl}phenoxy)pyridin-2-yl]-1H-pyrrol-3-yl}carbonyl)amino]ethyl}imino)diacetate] |  | 50 nM | 21 nM
Cc1ccc(F)c(NC(=O)c2ccc(F)c(Oc3ccnc(-c4cc(C(=O)NCCN)c[nH]4)c3)c2)c1 [Example 182, N-(2-aminoethyl)-5-[4-(2-fluoro-5-{[(2-fluoro-5-methylphenyl)amino]carbonyl}phenoxy)pyridin-2-yl]-1H-pyrrole-3-carboxamide] |  | 86 nM | 33 nM
Cc1ccc(F)c(NC(=O)c2ccc(F)c(Oc3ccnc(-c4cc(C(=O)NCCNC(=O)OC(C)(C)C)c[nH]4)c3)c2)c1 [Example 183, tert-butyl {2-[({5-[4-(2-fluoro-5-{[(2-fluoro-5-methylphenyl)amino]carbonyl}phenoxy)pyridin-2-yl]-1H-pyrrol-3-yl}carbonyl)amino]ethyl}carbamate] |  | 100 nM | 24 nM
Cc1ccc(F)c(NC(=O)Nc2ccc(Oc3ccnc(-c4cc(C(=O)N5CCC5)c[nH]4)c3)cc2)c1 [Example 185, 1-[4-({2-[4-(azetidin-1-ylcarbonyl)-1H-pyrrol-2-yl]pyridin-4-yl}oxy)phenyl]-3-(2-fluoro-5-methylphenyl)urea] | 63 nM | 40 nM | 
Cc1ccoc1C(=O)Nc1cc(Oc2ccnc(-c3cc(C(=O)NCCCN4CCCCC4)c[nH]3)c2)ccc1F [Example 191, 5-(4-{4-fluoro-3-[(3-methyl-2-furoyl)amino]phenoxy}pyridin-2-yl)-N-(3-piperidin-1-ylpropyl)-1H-pyrrole-3-carboxamide] |  | 42 nM | 25 nM
Cc1ccoc1C(=O)Nc1cc(Oc2ccnc(-c3cc(C(=O)NCCCN4CCCC4)c[nH]3)c2)ccc1F [Example 192, 5-(4-{4-fluoro-3-[(3-methyl-2-furoyl)amino]phenoxy}pyridin-2-yl)-N-(3-pyrrolidin-1-ylpropyl)-1H-pyrrole-3-carboxamide] |  | 34 nM | 26 nM
Cc1ccoc1C(=O)Nc1cc(Oc2ccnc(-c3cc(C(=O)NCCCN4CCOCC4)c[nH]3)c2)ccc1F [Example 194, 5-(4-{4-fluoro-3-[(3-methyl-2-furoyl)amino]phenoxy}pyridin-2-yl)-N-(3-morpholin-4-ylpropyl)-1H-pyrrole-3-carboxamide] |  | 25 nM | 23 nM
Cc1ccc(F)c(NC(=O)Nc2ccc(Oc3ccnc(-c4cc(C(=O)N5CCN(C(=O)OC(C)(C)C)CC5)c[nH]4)c3)cc2F)c1 [Example 224, tert-butyl 4-[(5-{4-[3-fluoro-4-({[(2-fluoro-5-methylphenyl)amino]carbonyl}amino)phenoxy]pyridin-2-yl}-1H-pyrrol-3-yl)carbonyl]piperazine-1-carboxylate] |  | 21 nM | 10 nM
Cc1ccc(F)c(NC(=O)Nc2ccc(Oc3ccnc(-c4cc(C(=O)NCCCN5CCCC5)c[nH]4)c3)cc2F)c1 [Example 226, 5-{4-[3-fluoro-4-({[(2-fluoro-5-methylphenyl)amino]carbonyl}amino)phenoxy]pyridin-2-yl}-N-(3-pyrrolidin-1-ylpropyl)-1H-pyrrole-3-carboxamide] |  | 9 nM | 6 nM
COCCOC(=O)c1c[nH]c(-c2cc(Oc3ccc(NC(=O)Nc4cc(C)ccc4F)c(F)c3)ccn2)c1 [Example 227, 2-methoxyethyl 5-{4-[3-fluoro-4-({[(2-fluoro-5-methylphenyl)amino]carbonyl}amino)phenoxy]pyridin-2-yl}-1H-pyrrole-3-carboxylate] |  | 11 nM | 9 nM
Cc1cccc(NC(=O)Nc2ccc(Oc3ccnc(-c4cc(C(=O)NCCCN5CCC(O)CC5)c[nH]4)c3)cc2)c1 [Example 235, N-[3-(4-hydroxypiperidin-1-yl)propyl]-5-{4-[4-({[(3-methylphenyl)amino]carbonyl}amino)phenoxy]pyridin-2-yl}-1H-pyrrole-3-carboxamide] | 15 nM | 14 nM | 
Cc1cccc(NC(=O)Nc2ccc(Oc3ccnc(-c4cc(C(=O)OCC(CO)(CO)CO)c[nH]4)c3)cc2)c1 [Example 240, 3-hydroxy-2,2-bis(hydroxymethyl)propyl 5-{4-[4-({[(3-methylphenyl)amino]carbonyl}amino)phenoxy]pyridin-2-yl}-1H-pyrrole-3-carboxylate] |  |  | 7 nM
COC(=O)CC[C@H](NC(=O)c1c[nH]c(-c2cc(Oc3cc(C(=O)Nc4cc(C)ccc4F)ccc3F)ccn2)c1)C(=O)O [Example 262, 2-[({5-[4-(2-fluoro-5-{[(2-fluoro-5-methylphenyl)amino]carbonyl}phenoxy)pyridin-2-yl]-1H-pyrrol-3-yl}carbonyl)amino]-5-methoxy-5-oxopentanoic acid] | 66 nM |  | 67 nM
CCNC(=O)CC[C@H](NC(=O)c1c[nH]c(-c2cc(Oc3ccc(NC(=O)Nc4cc(C)ccc4F)cc3)ccn2)c1)C(=O)NCC [Example 263, N,N′-diethyl-2-{[(5-{4-[4-({[(2-fluoro-5-methylphenyl)amino]carbonyl}amino)phenoxy]pyridin-2-yl}-1H-pyrrol-3-yl)carbonyl]amino}pentanediamide] | 46 nM |  | 14 nM
CCNC(=O)[C@H](CCC(=O)OC(C)(C)C)NC(=O)c1c[nH]c(-c2cc(Oc3cccc(NC(=O)c4occc4C)c3)ccn2)c1 [Example 265, tert-butyl 5-(ethylamino)-4-({[5-(4-{3-[(3-methyl-2-furoyl)amino]phenoxyl}pyridin-2-yl)-1H-pyrrol-3-yl]carbonyl}amino)-5-oxopentanoate] |  |  | 18 nM
Cc1ccoc1C(=O)Nc1cccc(Oc2ccnc(-c3cc(C(=O)N[C@@H](CCC(=O)OC(C)(C)C)C(=O)O)c[nH]3)c2)c1 [Example 266, 5-tert-butoxy-2-({[5-(4-{3-[(3-methyl-2-furoyl)amino]phenoxy}pyridin-2-yl)-1H-pyrrol-3-yl]carbonyl}amino)-5-oxopentanoic acid] |  |  | 31 nM
Cc1ccc(F)c(NC(=O)Nc2ccc(Oc3ccnc(-c4cc(C(=O)NCCCN5CCC(C(=O)O)C5)c[nH]4)c3)cc2)c1 (centres unmarked) [Example 268, 1-(3-{[(5-{4-[4-({[(2-fluoro-5-methylphenyl)amino]carbonyl}amino)phenoxy]pyridin-2-yl}-1H-pyrrol-3-yl)carbonyl]amino}propyl)pyrrolidine-3-carboxylic acid] |  |  | 15 nM
Cc1ccc(F)c(NC(=O)Nc2ccc(Oc3ccnc(-c4cc(C(=O)NCCCN5CCC(O)CC5)c[nH]4)c3)cc2)c1 [Example 272, 5-{4-[4-({[(2-fluoro-5-methylphenyl)amino]carbonyl}amino)phenoxy]pyridin-2-yl}-N-[3-(4-hydroxypiperidin-1-yl)propyl]-1H-pyrrole-3-carboxamide] |  |  | 19 nM
Cc1cccc(NC(=O)c2ccc(F)c(Oc3ccnc(-c4cc(C(=O)NCCC(=O)O)c[nH]4)c3)c2)c1 [Example 275, 3-[({5-[4-(2-fluoro-5-{[(3-methylphenyl)amino]carbonyl}phenoxy)pyridin-2-yl]-1H-pyrrol-3-yl}carbonyl)amino]propanoic acid] |  |  | 19 nM
COC(=O)CCNC(=O)c1c[nH]c(-c2cc(Oc3cc(C(=O)Nc4cccc(C)c4)ccc3F)ccn2)c1 [Example 277, methyl 3-[({5-[4-(2-fluoro-5-{[(3-methylphenyl)amino]carbonyl}phenoxy)pyridin-2-yl]-1H-pyrrol-3-yl}carbonyl)amino]propanoate] |  |  | 13 nM
